Source: patent publication US8309558B2, “Compounds for the treatment of hepatitis C” (Bristol-Myers Squibb Company, priority 2008, dated 2012)

Assays:
[1] = biological target: T1, HCV NS5B RdRp genotype 1b (Hepatitis C virus genotype 1b, UniProt Q9WMX2); experiment: Standard HCV NS5B RdRp enzyme assay; type: biochemical; conditions: Table 1a; HCV NS5B RdRp genotype 1b; read-out: IC50
T1 construct: The protein was expressed with an 18 amino acid C-terminal truncation to enhance the solubility; made in house; host or cells: E. coli BL21(DE3), pET21a vector
Procedure, shortened: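 Radiometric SPA measuring 3H-UMP incorporation on polyA/biotin-oligo-dT12 (6 nM/180 nM), 0.29 μM total UTP. Enzyme: NS5B 1b lacking last 18 residues, 28 nM final, 30° C for 60 min in 20 mM Hepes pH 7.5, 2.5 mM MgCl2, 2% DMSO. IC50 from seven-point curves.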

[2] = system: HCV replicon cells; experiment: HCV replicon FRET / luciferase assay (96-well plates); type: cell-based; conditions: Hepatitis C virus, Table 1a; HCV replicon; read-out: EC50
Procedure, shortened: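 Percent activity is background-subtracted signal relative to untreated cell wells, with background taken from maximal protease-inhibitor wells. Cytotoxicity is Alamar blue fluorescence relative to controls. Replicon inhibition was read by NS3 FRET peptide cleavage (340/490 nm) or luciferase.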

T1 sequence (Q9WMX2 2420-2992): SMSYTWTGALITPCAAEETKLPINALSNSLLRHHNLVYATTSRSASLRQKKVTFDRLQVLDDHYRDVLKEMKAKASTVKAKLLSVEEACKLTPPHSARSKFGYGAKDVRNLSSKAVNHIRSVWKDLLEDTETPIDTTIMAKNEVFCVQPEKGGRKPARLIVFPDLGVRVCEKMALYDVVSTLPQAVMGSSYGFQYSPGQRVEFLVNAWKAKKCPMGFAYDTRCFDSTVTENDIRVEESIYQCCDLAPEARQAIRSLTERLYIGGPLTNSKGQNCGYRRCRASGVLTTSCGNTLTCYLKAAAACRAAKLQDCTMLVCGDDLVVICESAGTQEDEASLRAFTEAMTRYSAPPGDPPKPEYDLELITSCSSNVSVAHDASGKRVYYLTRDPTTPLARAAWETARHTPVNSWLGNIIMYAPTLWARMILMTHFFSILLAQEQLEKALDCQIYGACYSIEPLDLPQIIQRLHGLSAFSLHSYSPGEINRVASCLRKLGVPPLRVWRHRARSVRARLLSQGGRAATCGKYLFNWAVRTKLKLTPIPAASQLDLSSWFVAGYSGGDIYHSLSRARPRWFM

| Structure (SMILES) | IC50 [1] [µM] | EC50 [2] [µM] |
| --- | --- | --- |
| CNC(=O)c1c(-c2ccc(F)cc2)oc2ccc(-c3cccc(C(=O)NCC(C)(C)C)c3)cc12 | < 0.25 | < 0.25 |
| CNC(=O)c1c(-c2ccc(F)cc2)oc2ccc(-c3cccc(C(=O)NCC4CC4)c3)cc12 | < 0.25 | < 0.25 |
| CCC(CC)NC(=O)c1cccc(-c2ccc3oc(-c4ccc(F)cc4)c(C(=O)NC)c3c2)c1 | < 0.25 | < 0.25 |
| CCC(C)NC(=O)c1cccc(-c2ccc3oc(-c4ccc(F)cc4)c(C(=O)NC)c3c2)c1 (stereo not drawn) | < 0.25 | < 0.25 |
| CCCCCNC(=O)c1cccc(-c2ccc3oc(-c4ccc(F)cc4)c(C(=O)NC)c3c2)c1 | < 0.25 | < 0.25 |
| CNC(=O)c1c(-c2ccc(F)cc2)oc2ccc(-c3cccc(C(=O)NCc4ccc(C)cc4)c3)cc12 | < 0.25 | < 0.25 |
| CNC(=O)c1c(-c2ccc(F)cc2)oc2ccc(-c3cccc(C(=O)NCCC(C)C)c3)cc12 | 0.25 to 1 | < 0.25 |
| CNC(=O)c1c(-c2ccc(F)cc2)oc2ccc(-c3cccc(C(=O)N(C)CCOC)c3)cc12 | 1 to 10 | 1 to 10 |
| C#CCNC(=O)c1cccc(-c2ccc3oc(-c4ccc(F)cc4)c(C(=O)NC)c3c2)c1 | 0.25 to 1 | 1 to 10 |
| CNC(=O)c1c(-c2ccc(F)cc2)oc2ccc(-c3cccc(C(=O)NCc4ccccc4F)c3)cc12 | 0.25 to 1 | 1 to 10 |
| CNC(=O)c1c(-c2ccc(F)cc2)oc2ccc(-c3cccc(C(=O)N4CCCC4C)c3)cc12 (stereo not drawn) | 0.25 to 1 | 1 to 10 |
| CNC(=O)c1c(-c2ccc(F)cc2)oc2ccc(-c3cccc(C(=O)N4CC[C@@H](O)C4)c3)cc12 | 1 to 10 | 1 to 10 |
| CNC(=O)c1c(-c2ccc(F)cc2)oc2ccc(-c3cccc(C(=O)N(CCOC)CCOC)c3)cc12 | 1 to 10 | 1 to 10 |
| CCN1CCN(C(=O)c2cccc(-c3ccc4oc(-c5ccc(F)cc5)c(C(=O)NC)c4c3)c2)CC1 | 1 to 10 | 1 to 10 |
| CNC(=O)c1c(-c2ccc(F)cc2)oc2ccc(-c3cccc(C(=O)NCCNC(C)=O)c3)cc12 | 1 to 10 | 1 to 10 |
| CNC(=O)c1c(-c2ccc(F)cc2)oc2ccc(-c3cccc(C(=O)N(C)CCN(C)C)c3)cc12 | > 10 | 1 to 10 |
| CNC(=O)c1c(-c2ccc(F)cc2)oc2ccc(-c3cccc(C(=O)Nc4cccc(OC)c4)c3)cc12 | 1 to 10 | 1 to 10 |
| CCOC(=O)C1CCCN(C(=O)c2cccc(-c3ccc4oc(-c5ccc(F)cc5)c(C(=O)NC)c4c3)c2)C1 (stereo not drawn) | 1 to 10 | 1 to 10 |
| CNC(=O)c1c(-c2ccc(F)cc2)oc2ccc(-c3cccc(C(=O)N4CC(C)OC(C)C4)c3)cc12 (stereo not drawn) | 1 to 10 | 1 to 10 |
| CNC(=O)c1c(-c2ccc(F)cc2)oc2ccc(-c3cccc(C(=O)N4CCC[C@H]4CO)c3)cc12 | 0.25 to 1 | 1 to 10 |
| CNC(=O)c1c(-c2ccc(F)cc2)oc2ccc(-c3cccc(C(=O)N(C)CCO)c3)cc12 | 1 to 10 | 1 to 10 |
| CNC(=O)c1c(-c2ccc(F)cc2)oc2ccc(-c3cccc(C(=O)N4CCCC(C)C4)c3)cc12 (stereo not drawn) | 1 to 10 | 1 to 10 |

| Structure (SMILES) | IC50 [1] [µM] | EC50 [2] [µM] |
| --- | --- | --- |
| CNC(=O)c1c(-c2ccc(F)cc2)oc2ccc(-c3cccc(C(=O)Nc4ccccc4Cl)c3)cc12 | 1 to 10 | 1 to 10 |
| CNC(=O)c1c(-c2ccc(F)cc2)oc2ccc(-c3cccc(C(=O)Nc4cccc(O)c4)c3)cc12 | 1 to 10 | 1 to 10 |
| CNC(=O)c1c(-c2ccc(F)cc2)oc2ccc(-c3cccc(C(=O)N4CCCC(CO)C4)c3)cc12 (stereo not drawn) | 1 to 10 | 1 to 10 |
| CNC(=O)c1c(-c2ccc(F)cc2)oc2ccc(-c3ccc(C(=O)N4CC[C@H](NC(C)=O)C4)cc3)cc12 | 1 to 10 | 1 to 10 |
| CCN(Cc1ccncc1)C(=O)c1ccc(-c2ccc3oc(-c4ccc(F)cc4)c(C(=O)NC)c3c2)cc1 | > 10 | 1 to 10 |
| CNC(=O)c1c(-c2ccc(F)cc2)oc2ccc(-c3ccc(C(=O)NCC(=O)OC)cc3)cc12 | > 10 | 1 to 10 |
| CNC(=O)c1c(-c2ccc(F)cc2)oc2ccc(-c3ccc(C(=O)N(C)C4CCN(C)C4)cc3)cc12 (stereo not drawn) | > 10 | 1 to 10 |
| CNC(=O)c1c(-c2ccc(F)cc2)oc2ccc(-c3ccc(C(=O)NCCc4ccc(F)cc4)cc3)cc12 | > 10 | 1 to 10 |
| CNC(=O)c1c(-c2ccc(F)cc2)oc2ccc(-c3ccc(C(=O)NCCO)cc3)cc12 | > 10 | 1 to 10 |
| CNC(=O)c1c(-c2ccc(F)cc2)oc2ccc(-c3cccc(C(=O)Nc4ccon4)c3)cc12 | 0.25 to 1 | 1 to 10 |
| CNC(=O)c1c(-c2ccc(F)cc2)oc2ccc(-c3cccc(C(=O)Nc4cc(C)no4)c3)cc12 | 1 to 10 | 1 to 10 |
| CNC(=O)c1c(-c2ccc(F)cc2)oc2ccc(-c3ccc(Cl)c(C(=O)NCC(C)C)c3)cc12 | 1 to 10 | 1 to 10 |
| CNC(=O)c1c(-c2ccc(F)cc2)oc2ccc(-c3cccc(C(=O)N[C@@H](C)C(=O)OC)c3)cc12 | < 0.25 | 1 to 10 |
| CNC(=O)c1c(-c2ccc(F)cc2)oc2ccc(-c3cccc(C(=O)N[C@H](CO)Cc4c[nH]cn4)c3)cc12 | 1 to 10 | 1 to 10 |
| CCOC(=O)[C@H](C)NC(=O)c1cccc(-c2ccc3oc(-c4ccc(F)cc4)c(C(=O)NC)c3c2)c1 | < 0.25 | 1 to 10 |
| CNC(=O)c1c(-c2ccc(F)cc2)oc2ccc(-c3cccc(C(=O)N[C@@H](CO)c4ccccc4)c3)cc12 | 0.25 to 1 | 1 to 10 |
| CNC(=O)c1c(-c2ccc(F)cc2)oc2ccc(-c3cccc(C(=O)NC(CO)C(=O)OC)c3)cc12 (stereo not drawn) | 0.25 to 1 | 1 to 10 |
| CNC(=O)c1c(-c2ccc(F)cc2)oc2ccc(-c3cccc(C(=O)Nc4ccc(O)nc4)c3)cc12 | 1 to 10 | 1 to 10 |
| CNC(=O)c1c(-c2ccc(F)cc2)oc2ccc(-c3cccc(C(=O)N[C@H](C(N)=O)C(C)C)c3)cc12 | 0.25 to 1 | 1 to 10 |
| CNC(=O)c1c(-c2ccc(F)cc2)oc2ccc(-c3cccc(C(=O)N[C@H](CO)C(=O)OC)c3)cc12 | 0.25 to 1 | 1 to 10 |
| CCOC(=O)C(NC(=O)c1cccc(-c2ccc3oc(-c4ccc(F)cc4)c(C(=O)NC)c3c2)c1)C(C)C (stereo not drawn) | 0.25 to 1 | 1 to 10 |
| CNC(=O)c1c(-c2ccc(F)cc2)oc2ccc(-c3cccc(C(=O)N[C@@H](C)C(=O)NC)c3)cc12 | 0.25 to 1 | 1 to 10 |

| Structure (SMILES) | IC50 [1] [µM] | EC50 [2] [µM] |
| --- | --- | --- |
| CNC(=O)c1c(-c2ccc(F)cc2)oc2ccc(-c3cccc(C(=O)N[C@@H](CO)CC(C)C)c3)cc12 | 1 to 10 | 1 to 10 |
| CNC(=O)c1c(-c2ccc(F)cc2)oc2ccc(-c3cccc(C(=O)N[C@@H](CO)C(C)(C)C)c3)cc12 | 1 to 10 | 1 to 10 |
| CCCC(CCC)NC(=O)c1cccc(-c2ccc3oc(-c4ccc(F)cc4)c(C(=O)NC)c3c2)c1 | > 0.4 | 1 to 10 |
| CNC(=O)c1c(-c2ccc(F)cc2)oc2ccc(-c3cccc(C(=O)NS(=O)(=O)C(C)(C)C)c3)cc12 | < 0.25 | 1 to 10 |
| CNC(=O)c1c(-c2ccc(F)cc2)oc2ccc(-c3cccc(C(=O)NS(=O)(=O)c4ccccc4)c3)cc12 | < 0.25 | 1 to 10 |
| CNC(=O)c1c(-c2ccc(F)cc2)oc2ccc(-c3cccc(C(=O)N(C)S(=O)(=O)c4ccccc4)c3)cc12 | > 1.39 | 1 to 10 |
| CNC(=O)c1c(-c2ccc(F)cc2)oc2ccc(-c3cccc(C(=O)NC(C)(C)c4ccccc4)c3)c(NC(C)=O)c12 | 1 to 10 | 1 to 10 |
| CNC(=O)c1c(-c2ccc(F)cc2)oc2ccc(-c3cccc(S(C)(=O)=O)c3)cc12 | > 10 | 1 to 10 |
| CNC(=O)c1c(-c2ccc(F)cc2)oc2ccc(-c3cc(C(F)(F)F)ccc3OC)cc12 | > 10 | > 3.7 |
| CNC(=O)c1c(-c2ccc(F)cc2)oc2ccc(-c3ccc(C(=O)NC4CC4)cc3)cc12 | > 10 | > 1.23 |
| CNC(=O)c1c(-c2ccc(F)cc2)oc2ccc(-c3cc(C)c(Br)cc3C)cc12 | > 10 | > 3.7 |
| CNC(=O)c1c(-c2ccc(F)cc2)oc2ccc(-c3ccc(C(F)(F)F)c(Cl)c3)cc12 | > 10 | > 1.23 |
| CNC(=O)c1c(-c2ccc(F)cc2)oc2ccc(-c3ccc(OC)nc3OC)cc12 | > 10 | > 1.23 |
| CNC(=O)c1c(-c2ccc(F)cc2)oc2ccc(-c3ccc(CNS(C)(=O)=O)cc3)cc12 | > 10 | > 1.23 |
| CNC(=O)c1c(-c2ccc(F)cc2)oc2ccc(-c3ccc(OC)nc3)cc12 | > 10 | > 1.23 |
| CNC(=O)c1c(-c2ccc(F)cc2)oc2ccc(-c3cc(OC)ncc3Cl)cc12 | > 10 | > 1.23 |
| CNC(=O)c1c(-c2ccc(F)cc2)oc2ccc(-c3cccc(C(N)=O)c3)cc12 | 1 to 10 | > 3.7 |
| CNC(=O)c1c(-c2ccc(F)cc2)oc2ccc(-c3cccc(C(=O)OC)c3)cc12 | > 10 | > 3.7 |
| CNC(=O)c1ccc(-c2ccc3oc(-c4ccc(F)cc4)c(C(=O)NC)c3c2)cc1 | > 10 | > 3.7 |
| CNC(=O)c1c(-c2ccc(F)cc2)oc2ccc(-c3cccc(S(=O)(=O)NC)c3)cc12 | > 10 | > 3.7 |
| CNC(=O)c1c(-c2ccc(F)cc2)oc2ccc(-c3cccc(C(=O)O)c3)cc12 | 1 to 10 | > 10 |
| CNC(=O)c1c(-c2ccc(F)cc2)oc2ccc(-c3ccc(CCC(=O)O)cc3)cc12 | 1 to 10 | > 10 |
